Legend:
Assay in all cases: relative viability (nuclei count vs DMSO), 5 days (fraction); higher = more cells survive
NCI-H596 = system: NCI-H596
Summary of the method: (§1)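 Lung cancer cell lines, seeded in 1536-well plates, were treated the following day by pin tool with a single drug or with five library-drug doses (not always all listed) in √10 steps on top of a fixed anchor-drug dose. Cells were fixed and nuclei stained in one step after 5 days, and nuclei were counted. Relative viability is the nuclei count for treated wells divided by that for vehicle wells, reported as medians of duplicate plates.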

A-427 = system: A-427
Summary of the method: as §1

RERF-LC-KJ = system: RERF-LC-KJ
Summary of the method: as §1

BEN = system: BEN
Summary of the method: as §1

NCI-H2085 = system: NCI-H2085
Summary of the method: as §1

LCLC-103H = system: LCLC-103H
Summary of the method: as §1

NCI-H520 = system: NCI-H520
Summary of the method: as §1

NCI-H661 = system: NCI-H661
Summary of the method: as §1

ABC-1 = system: ABC-1
Summary of the method: as §1

NCI-H460 = system: NCI-H460
Summary of the method: as §1

NCI-H1666 = system: NCI-H1666
Summary of the method: as §1

HARA = system: HARA
Summary of the method: as §1

LOU-NH91 = system: LOU-NH91
Summary of the method: as §1

NCI-H1651 = system: NCI-H1651
Summary of the method: as §1

NCI-H838 = system: NCI-H838
Summary of the method: as §1

NCI-H1734 = system: NCI-H1734
Summary of the method: as §1

NCI-H1975 = system: NCI-H1975
Summary of the method: as §1

CAL-12T = system: CAL-12T
Summary of the method: as §1

NCI-H647 = system: NCI-H647
Summary of the method: as §1

NCI-H727 = system: NCI-H727
Summary of the method: as §1

NCI-H2126 = system: NCI-H2126
Summary of the method: as §1

Cc1cn(-c2cc(NC(=O)c3ccc(C)c(Nc4nccc(-c5cccnc5)n4)c3)cc(C(F)(F)F)c2)cn1 [Nilotinib] + CC(C)C[C@H](NC(=O)[C@H](Cc1ccccc1)NC(=O)c1cnccn1)B(O)O [Bortezomib] (partner 0.002 µM)
relative viability (NCI-H596; first compound 0.001 µM): 1.16 | relative viability (NCI-H596; first compound 0.003162 µM): 1.03 | relative viability (NCI-H596; first compound 0.01 µM): 1.18 | relative viability (NCI-H596; first compound 0.03162 µM): 1.21 | relative viability (NCI-H596; first compound 0.1 µM): 0.96 | relative viability (A-427; first compound 0.001 µM): 0.928 | relative viability (A-427; first compound 0.01 µM): 0.95 | relative viability (A-427; first compound 0.03162 µM): 1.02 | relative viability (A-427; first compound 0.1 µM): 0.536 | relative viability (RERF-LC-KJ; first compound 0.001 µM): 1.12 | relative viability (RERF-LC-KJ; first compound 0.003162 µM): 1.14 | relative viability (RERF-LC-KJ; first compound 0.01 µM): 1.22 | relative viability (RERF-LC-KJ; first compound 0.03162 µM): 1.05 | relative viability (RERF-LC-KJ; first compound 0.1 µM): 1.02 | relative viability (BEN; first compound 0.001 µM): 0.782 | relative viability (BEN; first compound 0.003162 µM): 0.843 | relative viability (BEN; first compound 0.01 µM): 0.788 | relative viability (BEN; first compound 0.1 µM): 0.721 | relative viability (NCI-H2085; first compound 0.001 µM): 1.11 | relative viability (NCI-H2085; first compound 0.003162 µM): 1.11 | relative viability (NCI-H2085; first compound 0.01 µM): 1.27 | relative viability (NCI-H2085; first compound 0.03162 µM): 0.816 | relative viability (NCI-H2085; first compound 0.1 µM): 0.725 | relative viability (LCLC-103H; first compound 0.001 µM): 1.08 | relative viability (LCLC-103H; first compound 0.003162 µM): 1.29 | relative viability (LCLC-103H; first compound 0.03162 µM): 1.15 | relative viability (LCLC-103H; first compound 0.1 µM): 0.909 | relative viability (NCI-H520; first compound 0.001 µM): 0.591 | relative viability (NCI-H520; first compound 0.01 µM): 0.776 | relative viability (NCI-H520; first compound 0.03162 µM): 0.526 | relative viability (NCI-H520; first compound 0.1 µM): 0.34 | relative viability (NCI-H661; first compound 0.001 µM): 0.752 | relative viability (NCI-H661; first compound 0.003162 µM): 0.831 | relative viability (NCI-H661; first compound 0.01 µM): 1.02 | relative viability (NCI-H661; first compound 0.03162 µM): 0.642 | relative viability (NCI-H661; first compound 0.1 µM): 0.815 | relative viability (ABC-1; first compound 0.001 µM): 0.291 | relative viability (ABC-1; first compound 0.003162 µM): 0.275 | relative viability (ABC-1; first compound 0.01 µM): 0.23 | relative viability (ABC-1; first compound 0.03162 µM): 0.28 | relative viability (NCI-H460; first compound 0.001 µM): 0.689 | relative viability (NCI-H460; first compound 0.03162 µM): 0.627 | relative viability (NCI-H460; first compound 0.1 µM): 0.866 | relative viability (NCI-H1666; first compound 0.001 µM): 0.774 | relative viability (NCI-H1666; first compound 0.01 µM): 0.649 | relative viability (NCI-H1666; first compound 0.03162 µM): 0.985 | relative viability (NCI-H1666; first compound 0.1 µM): 0.829 | relative viability (HARA; first compound 0.001 µM): 1.17 | relative viability (HARA; first compound 0.003162 µM): 1.25 | relative viability (HARA; first compound 0.01 µM): 1.11 | relative viability (HARA; first compound 0.03162 µM): 1.15 | relative viability (HARA; first compound 0.1 µM): 0.859 | relative viability (LOU-NH91; first compound 0.001 µM): 0.523 | relative viability (LOU-NH91; first compound 0.003162 µM): 0.46 | relative viability (LOU-NH91; first compound 0.01 µM): 0.404 | relative viability (LOU-NH91; first compound 0.03162 µM): 0.473 | relative viability (LOU-NH91; first compound 0.1 µM): 0.524 | relative viability (NCI-H1651; first compound 0.001 µM): 0.917 | relative viability (NCI-H1651; first compound 0.003162 µM): 1.05 | relative viability (NCI-H1651; first compound 0.01 µM): 1.07 | relative viability (NCI-H1651; first compound 0.03162 µM): 0.956 | relative viability (NCI-H1651; first compound 0.1 µM): 0.653 | relative viability (NCI-H838; first compound 0.001 µM): 0.867 | relative viability (NCI-H838; first compound 0.003162 µM): 0.731 | relative viability (NCI-H838; first compound 0.01 µM): 0.976 | relative viability (NCI-H838; first compound 0.03162 µM): 0.673 | relative viability (NCI-H838; first compound 0.1 µM): 0.709 | relative viability (NCI-H1734; first compound 0.001 µM): 0.877 | relative viability (NCI-H1734; first compound 0.003162 µM): 0.948 | relative viability (NCI-H1734; first compound 0.01 µM): 1.01 | relative viability (NCI-H1734; first compound 0.03162 µM): 0.558 | relative viability (NCI-H1734; first compound 0.1 µM): 0.6 | relative viability (NCI-H1975; first compound 0.001 µM): 0.32 | relative viability (NCI-H1975; first compound 0.003162 µM): 0.315 | relative viability (NCI-H1975; first compound 0.01 µM): 0.268 | relative viability (NCI-H1975; first compound 0.03162 µM): 0.279 | relative viability (NCI-H1975; first compound 0.1 µM): 0.171 | relative viability (CAL-12T; first compound 0.001 µM): 0.968 | relative viability (CAL-12T; first compound 0.01 µM): 0.919 | relative viability (CAL-12T; first compound 0.03162 µM): 0.807 | relative viability (CAL-12T; first compound 0.1 µM): 1.19 | relative viability (NCI-H647; first compound 0.001 µM): 0.79 | relative viability (NCI-H647; first compound 0.003162 µM): 1.52 | relative viability (NCI-H647; first compound 0.03162 µM): 0.57 | relative viability (NCI-H647; first compound 0.1 µM): 0.951 | relative viability (NCI-H727; first compound 0.001 µM): 0.848 | relative viability (NCI-H727; first compound 0.01 µM): 0.976 | relative viability (NCI-H727; first compound 0.03162 µM): 0.678 | relative viability (NCI-H727; first compound 0.1 µM): 0.484 | relative viability (NCI-H2126; first compound 0.001 µM): 1.12 | relative viability (NCI-H2126; first compound 0.003162 µM): 1.18 | relative viability (NCI-H2126; first compound 0.01 µM): 1.08 | relative viability (NCI-H2126; first compound 0.03162 µM): 1.08 | relative viability (NCI-H2126; first compound 0.1 µM): 0.624

Source: the supplement of paper PMC10307832
